Measured values from patent publication US20100267561A1, “HERBICIDAL PYRIDAZINONE DERIVATIVES” (priority 2007, published 2010).

Assays:
Test in all cases: Test B pre-/postemergence plant response
Assay type in all cases: in vivo
[1] = system: pigweed (Amaranthus retroflexus); settings: Postemergence
Text: (§1) Seeds of plant species selected from blackgrass (Alopecurus myosuroides), downy bromegrass (Bromus tectorum), green foxtail (Setaria viridis), Italian ryegrass (Lolium multiflorum), wheat (Triticum aestivum), wild oat (Avena fatua), catchweed bedstraw (Galium aparine), bermudagrass (Cynodon dactylon), surinam grass (Brachiaria decumbens), cocklebur (Xanthium strumarium), corn (Zea mays), large crabgrass (Digitaria sanguinalis), woolly cupgrass (Eriochloa villosa), giant foxtail (Setaria faberii), goosegrass (Eleusine indica), johnsongrass (Sorghum halepense), kochia (Kochia scoparia), lambsquarters (Chenopodium album), morningglory (Ipomoea coccinea), eastern black (E.B.) nightshade (Solanum ptycanthum), yellow nutsedge (Cyperus esculentus), pigweed (Amaranthus retroflexus), common ragweed (Ambrosia elation), Russian thistle (Salsola iberica), soybean (Glycine max), common (oilseed) sunflower (Helianthus annuus), and velvetleaf (Abutilon theophrasti) were planted and treated preemergence with test chemicals formulated in a non-phytotoxic solvent mixture which included a surfactant.
(§2) At the same time, plants selected from these crop and weed species and also winter barley (Hordeum vulgare), canarygrass (Phalaris minor), chickweed (Stellaria media) and windgrass (Apera spica-venti) were treated with postemergence applications of some of the test chemicals formulated in the same manner. Plants ranged in height from 2 to 18 cm (1- to 4-leaf stage) for postemergence treatments.
(§3) Plant species in the flooded paddy test consisted of rice (Oryza sativa), umbrella sedge (Cyperus difformis), ducksalad (Heteranthera limosa) and barnyardgrass (Echinochloa crus-galli) grown to the 2-leaf stage for testing. At time of treatment, test pots were flooded to 3 cm above the soil surface, treated by application of test compounds directly to the paddy water, and then maintained at that water depth for the duration of the test. Treated plants and controls were maintained in a greenhouse for 13 to 15 days, after which time all species were compared to controls and visually evaluated. Plant response ratings, summarized in Table B, are based on a scale of 0 to 100 where 0 is no effect and 100 is complete control. A dash (-) response means no test result.

[2] = system: johnsongrass (Sorghum halepense)
Text: as §1, §2, §3

[3] = system: giant foxtail (Setaria faberii)
Text: as §1, §2, §3

[4] = system: blackgrass (Alopecurus myosuroides)
Text: as §1, §2, §3

[5] = system: eastern black (E.B.) nightshade (Solanum ptycanthum); settings: Preemergence
Text: as §1, §2, §3

[6] = system: downy bromegrass (Bromus tectorum)
Text: as §1, §2, §3

[7] = system: velvetleaf (Abutilon theophrasti)
Text: as §1, §2, §3

[8] = system: Italian ryegrass (Lolium multiflorum)
Text: as §1, §2, §3

[9] = system: woolly cupgrass (Eriochloa villosa)
Text: as §1, §2, §3

[10] = system: green foxtail (Setaria viridis)
Text: as §1, §2, §3

[11] = system: catchweed bedstraw (Galium aparine); settings: Preemergence
Text: as §1, §2, §3

[12] = system: yellow nutsedge (Cyperus esculentus)
Text: as §1, §2, §3

wild oat (Avena fatua) = system: wild oat (Avena fatua)
Text: as §1, §2, §3

[13] = system: morningglory (Ipomoea coccinea)
Text: as §1, §2, §3

[14] = Postemergence, 16 g ai/ha, scale 0 to 100
[15] = Postemergence, 31 g ai/ha, scale 0 to 100, 0 no effect, 100 complete control
[16] = Postemergence, 62 g ai/ha, scale 0 to 100
[17] = Postemergence, 125 g ai/ha, scale 0 to 100
[18] = Preemergence, 16 g ai/ha, scale 0 to 100 (0 no effect, 100 complete control)
[19] = Preemergence, 31 g ai/ha, 0 to 100 scale, 0 no effect, 100 complete control
[20] = Preemergence, 62 g ai/ha, scale 0 to 100
[21] = Preemergence, 125 g ai/ha, scale 0 to 100
[22] = 16 g ai/ha, scale 0 to 100 (0 no effect, 100 complete control)
[23] = 31 g ai/ha, 0 to 100 scale, 0 no effect, 100 complete control

CCc1cc(-c2ccc(C(F)(F)F)cc2)nn1-c1c(OC(=O)OC(C)C)cnn(C)c1=O [Compound 12]
Plant response rating, Pigweed ([1]; 16 g ai/ha, scale 0 to 100): 0 | Plant response rating, Pigweed ([1]; 31 g ai/ha, scale 0 to 100, 0 no effect, 100 complete control): 0 | Plant response rating, Pigweed ([1]; 62 g ai/ha, scale 0 to 100): 5 | Plant response rating, Pigweed ([1]; 125 g ai/ha, scale 0 to 100): 50 | Plant response rating, Johnsongrass [2, 14]: 100 | Plant response rating, Johnsongrass [2, 15]: 100 | Plant response rating, Johnsongrass [2, 16]: 100 | Plant response rating, Johnsongrass [2, 17]: 100 | Plant response rating, Johnsongrass [2, 18]: 70 | Plant response rating, Johnsongrass [2, 19]: 95 | Plant response rating, Johnsongrass [2, 20]: 100 | Plant response rating, Johnsongrass [2, 21]: 100 | Plant response rating, Foxtail, Giant [3, 14]: 100 | Plant response rating, Foxtail, Giant [3, 15]: 100 | Plant response rating, Foxtail, Giant [3, 16]: 100 | Plant response rating, Foxtail, Giant [3, 17]: 100 | Plant response rating, Foxtail, Giant [3, 18]: 100 | Plant response rating, Foxtail, Giant [3, 19]: 100 | Plant response rating, Foxtail, Giant [3, 20]: 100 | Plant response rating, Foxtail, Giant [3, 21]: 100 | Plant response rating, Blackgrass [4, 14]: 100 | Plant response rating, Blackgrass [4, 15]: 100 | Plant response rating, Blackgrass [4, 16]: 100 | Plant response rating, Blackgrass [4, 17]: 100 | Plant response rating, Blackgrass [4, 18]: 98 | Plant response rating, Blackgrass [4, 19]: 100 | Plant response rating, Blackgrass [4, 20]: 100 | Plant response rating, Blackgrass [4, 21]: 100 | Plant response rating, Nightshade, E. B. [5, 22]: 0 | Plant response rating, Nightshade, E. B. [5, 23]: 0 | Plant response rating, Nightshade, E. B. ([5]; 62 g ai/ha, scale 0 to 100): 50 | Plant response rating, Nightshade, E. B. ([5]; 125 g ai/ha, scale 0 to 100): 85 | Plant response rating, Bromegrass, Downy [6, 14]: 85 | Plant response rating, Bromegrass, Downy [6, 15]: 85 | Plant response rating, Bromegrass, Downy [6, 16]: 85 | Plant response rating, Bromegrass, Downy [6, 18]: 0 | Plant response rating, Bromegrass, Downy [6, 19]: 0 | Plant response rating, Bromegrass, Downy [6, 20]: 70 | Plant response rating, Bromegrass, Downy [6, 21]: 75 | Plant response rating, Velvetleaf [7, 14]: 0 | Plant response rating, Velvetleaf [7, 15]: 0 | Plant response rating, Velvetleaf [7, 16]: 0 | Plant response rating, Velvetleaf [7, 17]: 30 | Plant response rating, Velvetleaf [7, 18]: 0 | Plant response rating, Velvetleaf [7, 19]: 0 | Plant response rating, Velvetleaf [7, 20]: 0 | Plant response rating, Velvetleaf [7, 21]: 0 | Plant response rating, Ryegrass, Italian [8, 14]: 100 | Plant response rating, Ryegrass, Italian [8, 15]: 100 | Plant response rating, Ryegrass, Italian [8, 16]: 100 | Plant response rating, Ryegrass, Italian [8, 17]: 100 | Plant response rating, Ryegrass, Italian [8, 18]: 90 | Plant response rating, Ryegrass, Italian [8, 19]: 95 | Plant response rating, Ryegrass, Italian [8, 20]: 100 | Plant response rating, Ryegrass, Italian [8, 21]: 100 | Plant response rating, Cupgrass, Woolly [9, 14]: 100 | Plant response rating, Cupgrass, Woolly [9, 15]: 100 | Plant response rating, Cupgrass, Woolly [9, 16]: 100 | Plant response rating, Cupgrass, Woolly [9, 17]: 100 | Plant response rating, Cupgrass, Woolly [9, 18]: 80 | Plant response rating, Cupgrass, Woolly [9, 19]: 85 | Plant response rating, Cupgrass, Woolly [9, 20]: 98 | Plant response rating, Cupgrass, Woolly [9, 21]: 100 | Plant response rating, Foxtail, Green [10, 14]: 85 | Plant response rating, Foxtail, Green [10, 15]: 100 | Plant response rating, Foxtail, Green [10, 16]: 100 | Plant response rating, Foxtail, Green [10, 17]: 100 | Plant response rating, Foxtail, Green [10, 18]: 100 | Plant response rating, Foxtail, Green [10, 19]: 100 | Plant response rating, Foxtail, Green [10, 20]: 100 | Plant response rating, Foxtail, Green [10, 21]: 100 | Plant response rating, Galium [11, 22]: 0 | Plant response rating, Galium [11, 23]: 0 | Plant response rating, Galium ([11]; 62 g ai/ha, scale 0 to 100): 0 | Plant response rating, Galium ([11]; 125 g ai/ha, scale 0 to 100): 0 | Plant response rating, Nutsedge, Yellow [12, 14]: 0 | Plant response rating, Nutsedge, Yellow [12, 15]: 0 | Plant response rating, Nutsedge, Yellow [12, 16]: 0 | Plant response rating, Nutsedge, Yellow [12, 17]: 0 | Plant response rating, Nutsedge, Yellow [12, 18]: 0 | Plant response rating, Nutsedge, Yellow [12, 19]: 0 | Plant response rating, Nutsedge, Yellow [12, 20]: 0 | Plant response rating, Nutsedge, Yellow [12, 21]: 0 | Plant response rating, Oat, Wild (wild oat (Avena fatua); [14]): 100 | Plant response rating, Oat, Wild (wild oat (Avena fatua); [15]): 100 | Plant response rating, Oat, Wild (wild oat (Avena fatua); [16]): 100 | Plant response rating, Oat, Wild (wild oat (Avena fatua); [17]): 100 | Plant response rating, Oat, Wild (wild oat (Avena fatua); [18]): 60 | Plant response rating, Oat, Wild (wild oat (Avena fatua); [19]): 90 | Plant response rating, Oat, Wild (wild oat (Avena fatua); [20]): 95 | Plant response rating, Oat, Wild (wild oat (Avena fatua); [21]): 98 | Plant response rating, Morningglory [13, 14]: 0 | Plant response rating, Morningglory [13, 15]: 0 | Plant response rating, Morningglory [13, 16]: 0 | Plant response rating, Morningglory [13, 17]: 40 | Plant response rating, Morningglory [13, 18]: 0 | Plant response rating, Morningglory [13, 19]: 0 | Plant response rating, Morningglory [13, 20]: 0 | Plant response rating, Morningglory [13, 21]: 0
